Measurements as given in ChEMBL document CHEMBL3885861, “Open TG-GATES”.

Species on record: Rattus norvegicus
Assay: Open TG-GATES - Regimen: Daily Repeat
Assay type: toxicity, organism-based, Sprague-Dawley
Parameters: regimen Daily Repeat, gender Male, age 6 weeks
Details: in vivo, po, route gavage; for APTT / Bas / Eos / Fbg / Ht / Lym / MCHC / MCV / Mono / Neu / RBC / Ret / WBC / Hb: tissue Blood; for KIDNEY_L / KIDNEY_R / KIDNEY_TOTAL: tissue Kidney
[1] = 20 mg/kg, 72 h, dose level Low, time 3 day
[2] = 20 mg/kg, 72 h, tissue Plasma, dose level Low, time 3 day
[3] = 20 mg/kg, […], dose level Low, time 7 day
[4] = 20 mg/kg, […], dose level Low, time 14 day
[5] = 20 mg/kg, […], dose level Low, time 28 day
[6] = 20 mg/kg, […], tissue Plasma, dose level Low, time 7 day
[7] = 20 mg/kg, […], tissue Plasma, dose level Low, time 14 day
[8] = 20 mg/kg, […], tissue Plasma, dose level Low, time 28 day
[9] = 60 mg/kg, 72 h, dose level Middle, time 3 day

CCCCC1C(=O)N(c2ccccc2)N(c2ccccc2)C1=O [PHENYLBUTAZONE]
APTT [1]: 16.6 s
Bas [1]: 0%
Eos [1]: 1%
Fbg [1]: 220 mg/dL
Ht [1]: 42.6%
Lym [1]: 76.6%
MCHC [1]: 33.4%
MCV [1]: 66.3 fL
Mono [1]: 8.4%
Neu [1]: 14%
RBC [1]: 643.4 x10_4/ul
Ret [1]: 7.4%
WBC [1]: 137.6 x10_2/uL
KIDNEY_L [1]: 1 g
KIDNEY_R [1]: 1 g
KIDNEY_TOTAL [1]: 2 g
ALP [2]: 895.4 IU/L
ALT [2]: 37.2 IU/L
AST [2]: 63.2 IU/L
BUN [2]: 16 mg/dL
CRE [2]: 0.6 mg/dL
Ca [2]: 10.4 mg/dL
Cl [2]: 106.4 meq/L
DBIL [2]: 0 mg/dL
GLC [2]: 195.6 mg/dL
IP [2]: 8.1 mg/dL
K [2]: 4.9 meq/L
PL [2]: 170.4 mg/dL
RALB [2]: 4 g/dL
TBIL [2]: 0.3 mg/dL
TC [2]: 86.2 mg/dL
TG [2]: 125.8 mg/dL
TP [2]: 6 g/dL
gamma-GTP [2]: 1.6 IU/L
TERMINAL_BW [3]: 263.4 g
TERMINAL_BW [4]: 327.9 g
TERMINAL_BW [5]: 390.6 g
APTT [3]: 16.5 s
Bas [3]: 0%
Eos [3]: 0.8%
Fbg [3]: 229.8 mg/dL
Hb [3]: 14.3 g/dL
Ht [3]: 42.8%
Lym [3]: 85.2%
MCHC [3]: 33.5%
MCV [3]: 64.2 fL
Mono [3]: 5%
Neu [3]: 8.8%
RBC [3]: 668 x10_4/ul
Ret [3]: 5.4%
APTT [4]: 16.2 s
Bas [4]: 0%
Eos [4]: 0.8%
Fbg [4]: 226.8 mg/dL
Hb [4]: 14.8 g/dL
Ht [4]: 44.2%
Lym [4]: 85%
MCHC [4]: 33.5%
MCV [4]: 62.7 fL
Mono [4]: 4.4%
Neu [4]: 10%
RBC [4]: 705.2 x10_4/ul
Ret [4]: 5.1%
WBC [4]: 153 x10_2/uL
APTT [5]: 15.5 s
Bas [5]: 0%
Eos [5]: 0.4%
Fbg [5]: 239.4 mg/dL
Hb [5]: 15.3 g/dL
Ht [5]: 45.7%
Lym [5]: 85.4%
MCHC [5]: 33.5%
MCV [5]: 58.2 fL
Mono [5]: 4%
RBC [5]: 786.8 x10_4/ul
Ret [5]: 2.4%
WBC [5]: 138.6 x10_2/uL
KIDNEY_L [3]: 1.2 g
KIDNEY_R [3]: 1.2 g
KIDNEY_TOTAL [3]: 2.4 g
KIDNEY_L [4]: 1.3 g
KIDNEY_R [4]: 1.3 g
KIDNEY_TOTAL [4]: 2.6 g
KIDNEY_L [5]: 1.4 g
KIDNEY_R [5]: 1.4 g
KIDNEY_TOTAL [5]: 2.7 g
ALP [6]: 882.4 IU/L
ALT [6]: 30 IU/L
AST [6]: 61.4 IU/L
BUN [6]: 18.6 mg/dL
CRE [6]: 0.5 mg/dL
Ca [6]: 10.5 mg/dL
Cl [6]: 105.8 meq/L
DBIL [6]: 0 mg/dL
GLC [6]: 193.6 mg/dL
IP [6]: 7.7 mg/dL
K [6]: 5.2 meq/L
RALB [6]: 4 g/dL
TBIL [6]: 0.3 mg/dL
TC [6]: 77 mg/dL
TG [6]: 119 mg/dL
TP [6]: 6.7 g/dL
gamma-GTP [6]: 1.4 IU/L
ALP [7]: 735.2 IU/L
ALT [7]: 27.6 IU/L
AST [7]: 57.2 IU/L
BUN [7]: 20.4 mg/dL
CRE [7]: 0.6 mg/dL
Ca [7]: 10.8 mg/dL
Cl [7]: 107.6 meq/L
DBIL [7]: 0.002 mg/dL
GLC [7]: 201 mg/dL
IP [7]: 8.2 mg/dL
K [7]: 5 meq/L
RALB [7]: 4 g/dL
TBIL [7]: 0.3 mg/dL
TC [7]: 71 mg/dL
TG [7]: 165.4 mg/dL
TP [7]: 6.2 g/dL
gamma-GTP [7]: 1.2 IU/L
ALP [8]: 633.6 IU/L
ALT [8]: 31.6 IU/L
AST [8]: 57.8 IU/L
BUN [8]: 21 mg/dL
CRE [8]: 0.6 mg/dL
Ca [8]: 10.5 mg/dL
Cl [8]: 106.8 meq/L
DBIL [8]: 0.012 mg/dL
GLC [8]: 193.2 mg/dL
IP [8]: 7.3 mg/dL
K [8]: 4.3 meq/L
RALB [8]: 4.2 g/dL
TBIL [8]: 0.3 mg/dL
TC [8]: 65.2 mg/dL
TG [8]: 208.8 mg/dL
TP [8]: 6.5 g/dL
gamma-GTP [8]: 1.8 IU/L
TERMINAL_BW [9]: 231.9 g
APTT [9]: 17.3 s
Bas [9]: 0%
